Results: patent publication US20250311722A1, “IMPROVED BIOCIDE” (Purgos ApS, priority 2022, published 2025)
Several values for one entry are separate records, joined by “and”; a condition that tells them apart may be missing. Equal entries are not always repeated.

Key:
[1] = system: Leuconostoc mesenteroides ISI 504; assay: Minimum bactericidal concentration (MBC); format: cell-based; parameters: MBC data (outgrowth): unit not given here
Source text: (§1) Even when no growth is detectable in the MIC tests, it is possible that the microorganisms have survived the treatment i.e., they are not killed but just prevented from growing. In order to test for survivors, MBC plates were subsequently made from the MIC plates.

[2] = system: Debaryomyces hansenii ISI 12; assay: Minimum bactericidal concentration (MBC); format: cell-based; parameters: MBC data (outgrowth): unit not given here
Source text: as §1

Bacillus cereus ISI 842 = assay: Minimum bactericidal concentration (MBC); format: cell-based; parameters: MBC data (outgrowth): unit not given here
Source text: as §1

[3] = system: Listeria monocytogenes ISI 22; assay: Minimum bactericidal concentration (MBC); format: cell-based; parameters: MBC data (outgrowth): unit not given here
Source text: as §1

[4] = system: Salmonella Infantis ISI 170; assay: Minimum bactericidal concentration (MBC); format: cell-based; parameters: MBC data (outgrowth): unit not given here
Source text: as §1

[5] = system: Streptococcus termophilus ISI 1563; assay: Minimum bactericidal concentration (MBC); format: cell-based; parameters: MBC data (outgrowth): unit not given here
Source text: as §1

[6] = system: Lactobacillus brevis ISI 2269; assay: Minimum bactericidal concentration (MBC); format: cell-based; parameters: MBC data (outgrowth): unit not given here
Source text: as §1

[7] = system: Candida albicans ISI 1226; assay: Minimum bactericidal concentration (MBC); format: cell-based; parameters: MBC data (outgrowth): unit not given here
Source text: as §1

[8] = system: Pseudomonas aeruginosa ISI 1462; assay: Minimum bactericidal concentration (MBC); format: cell-based; parameters: MBC data (outgrowth): unit not given here
Source text: as §1

Aspergillus niger ISI 3 = assay: Minimum bactericidal concentration (MBC); format: cell-based
Source text: as §1

[9] = system: Enterococcus hierae, ATCC 10541; assay: EN 1276 quantitative suspension test, bactericidal activity; format: cell-based, Enterococcus hirae; details: all tested contact times (5, 60 min) and concentrations (1.5%, 3%, 6%)
Procedure: The test was carried out according to EN 1276, 2019: Chemical disinfectants and antiseptics-Quantitative suspension test for the evaluation of bactericidal activity of chemical disinfectants and antiseptics used in food, industrial, domestic, and institutional areas-Test method and requirements. […] The growth media TSB (Tryptic Soy Broth) was separately inoculated with a culture loop of the microorganisms. The cultures were incubated at 37° C. for 24 hours. Bovine Serum Albumin with a final concentration of 3 g/L Polysorbate 80 with a concentration of 30 g/L The used method was Dilution-neutralization method. 1 mL of interfering substance was pipetted into a tube and 1 mL of the test suspension was added and mixed. […] The solution was incubated at 20° C. for 5 min. and 60 min. respectively. […] After 5 min. of neutralization time 100 μL of the mixture was added to a petri-dish containing TSA media. Another 100 μL was added to a tube containing 900 μL 0.9% NaCl and a serial dilution to 10^-5 was made. The mixtures added to the agar plates were evenly distributed with a Drigalski-spatula. The agar plates were incubated at 37° C. for 24 hours. After incubation, the number of surviving bacteria (CFU) was counted. The test was performed in 3 replicates.

Vaccinia = assay: ASTM E1052 Kill Time Screen test, antiviral activity; format: cell-based

## CCCCN(CCO)CCO [NBDA, N-butyldiethanolamine]
[1]
  MBC (%): 0.63%
[1]; 0.02% NBDA
  MBC data (outgrowth): 1.449 and 1.467
[1]; 0.04% NBDA
  MBC data (outgrowth): 1.449 and 1.468
[1]; 0.08% NBDA
  MBC data (outgrowth): 1.413 and 1.467
[1]; 0.16% NBDA
  MBC data (outgrowth): 1.337 and 1.425
[1]; 0.31% NBDA
  MBC data (outgrowth): 1.452 and 1.448
[1]; 1.25% NBDA
  MBC data (outgrowth): 0.075
[1]; 2.50% NBDA
  MBC data (outgrowth): 0.076 and 0.077
[1]; 5.00% NBDA
  MBC data (outgrowth): 0.066 and 0.067
[2]
  MBC (%): 2.5%
[2]; 0.02% NBDA
  MBC data (outgrowth): 1.491 and 1.495
[2]; 0.04% NBDA
  MBC data (outgrowth): 1.493 and 1.461
[2]; 0.08% NBDA
  MBC data (outgrowth): 1.472
[2]; 0.16% NBDA
  MBC data (outgrowth): 1.473 and 1.469
[2]; 0.31% NBDA
  MBC data (outgrowth): 1.432 and 1.393
[2]; 0.63% NBDA
  MBC data (outgrowth): 1.387 and 1.458
[2]; 1.25% NBDA
  MBC data (outgrowth): 1.333 and 1.309
[2]; 2.50% NBDA
  MBC data (outgrowth): 0.074
[2]; 5.00% NBDA
  MBC data (outgrowth): 0.068 and 0.069
Bacillus cereus ISI 842
  MBC (%): 1.25%
Bacillus cereus ISI 842; 0.02% NBDA
  MBC data (outgrowth): 1.261 and 1.253
Bacillus cereus ISI 842; 0.04% NBDA
  MBC data (outgrowth): 1.106 and 1.352
Bacillus cereus ISI 842; 0.08% NBDA
  MBC data (outgrowth): 1.098 and 1.118
Bacillus cereus ISI 842; 0.16% NBDA
  MBC data (outgrowth): 1.286 and 1.086
Bacillus cereus ISI 842; 0.31% NBDA
  MBC data (outgrowth): 1.277 and 1.161
Bacillus cereus ISI 842; 0.63% NBDA
  MBC data (outgrowth): 1.117 and 1.001
Bacillus cereus ISI 842; 1.25% NBDA
  MBC data (outgrowth): 0.075 and 0.076
Bacillus cereus ISI 842; 2.50% NBDA
  MBC data (outgrowth): 0.072 and 0.078
Bacillus cereus ISI 842; 5.00% NBDA
  MBC data (outgrowth): 0.066
[3]
  MBC (%): 2.5%
[3]; 0.02% NBDA
  MBC data (outgrowth): 1.197 and 1.009
[3]; 0.04% NBDA
  MBC data (outgrowth): 1.195 and 1.097
[3]; 0.08% NBDA
  MBC data (outgrowth): 1.201 and 1.059
[3]; 0.16% NBDA
  MBC data (outgrowth): 1.216 and 1.141
[3]; 0.31% NBDA
  MBC data (outgrowth): 1.320 and 1.310
[3]; 0.63% NBDA
  MBC data (outgrowth): 1.496 and 1.507
[3]; 1.25% NBDA
  MBC data (outgrowth): 1.517 and 1.533
[3]; 2.50% NBDA
  MBC data (outgrowth): 0.065 and 0.070
[3]; 5.00% NBDA
  MBC data (outgrowth): 0.060 and 0.062
[4]
  MBC (%): 1.25%
[4]; 0.02% NBDA
  MBC data (outgrowth): 1.732 and 1.806
[4]; 0.04% NBDA
  MBC data (outgrowth): 1.858 and 1.853
[4]; 0.08% NBDA
  MBC data (outgrowth): 1.841 and 1.791
[4]; 0.16% NBDA
  MBC data (outgrowth): 1.826 and 1.827
[4]; 0.31% NBDA
  MBC data (outgrowth): 1.786 and 1.488
[4]; 0.63% NBDA
  MBC data (outgrowth): 1.806 and 1.787
[4]; 1.25% NBDA
  MBC data (outgrowth): 0.074 and 0.071
[4]; 2.50% NBDA
  MBC data (outgrowth): 0.068 and 0.070
[4]; 5.00% NBDA
  MBC data (outgrowth): 0.066 and 0.060
[5]
  MBC (%): 1.25%
[5]; 0.02% NBDA
  MBC data (outgrowth): 0.346 and 0.323
[5]; 0.04% NBDA
  MBC data (outgrowth): 0.307 and 0.283
[5]; 0.08% NBDA
  MBC data (outgrowth): 0.311 and 0.304
[5]; 0.16% NBDA
  MBC data (outgrowth): 0.251 and 0.232
[5]; 0.31% NBDA
  MBC data (outgrowth): 0.802 and 0.522
[5]; 0.63% NBDA
  MBC data (outgrowth): 0.277 and 0.427
[5]; 1.25% NBDA
  MBC data (outgrowth): 0.072
[5]; 2.50% NBDA
  MBC data (outgrowth): 0.070 and 0.068
[5]; 5.00% NBDA
  MBC data (outgrowth): 0.062 and 0.058
[6]
  MBC (%): 0.31%
[6]; 0.02% NBDA
  MBC data (outgrowth): 0.446 and 0.463
[6]; 0.04% NBDA
  MBC data (outgrowth): 0.439 and 0.455
[6]; 0.08% NBDA
  MBC data (outgrowth): 0.447 and 0.470
[6]; 0.16% NBDA
  MBC data (outgrowth): 0.755 and 1.060
[6]; 0.31% NBDA
  MBC data (outgrowth): 0.078 and 0.077
[6]; 0.63% NBDA
  MBC data (outgrowth): 0.208 and 0.248
[6]; 1.25% NBDA
  MBC data (outgrowth): 0.077
[6]; 2.50% NBDA
  MBC data (outgrowth): 0.075 and 0.077
[6]; 5.00% NBDA
  MBC data (outgrowth): 0.067 and 0.068
[7]
  MBC (%): 1.25%
[7]; 0.02% NBDA
  MBC data (outgrowth): 1.332 and 1.357
[7]; 0.04% NBDA
  MBC data (outgrowth): 1.291 and 1.314
[7]; 0.08% NBDA
  MBC data (outgrowth): 1.278 and 1.314
[7]; 0.16% NBDA
  MBC data (outgrowth): 1.171 and 1.485
[7]; 0.31% NBDA
  MBC data (outgrowth): 1.168 and 1.175
[7]; 1.25% NBDA
  MBC data (outgrowth): 0.079 and 0.080
[7]; 2.50% NBDA
  MBC data (outgrowth): 0.074 and 0.075
[7]; 5.00% NBDA
  MBC data (outgrowth): 0.068
[8]
  MBC (%): 1.25%
[8]; 0.02% NBDA
  MBC data (outgrowth): 1.360 and 2.248
[8]; 0.04% NBDA
  MBC data (outgrowth): 2.186 and 1.311
[8]; 0.08% NBDA
  MBC data (outgrowth): 1.779 and 2.051
[8]; 0.16% NBDA
  MBC data (outgrowth): 1.680 and 2.303
[8]; 0.31% NBDA
  MBC data (outgrowth): 1.477 and 1.570
[8]; 0.63% NBDA
  MBC data (outgrowth): 1.909 and 1.789
[8]; 1.25% NBDA
  MBC data (outgrowth): 0.071 and 0.070
[8]; 2.50% NBDA
  MBC data (outgrowth): 0.071 and 0.069
[8]; 5.00% NBDA
  MBC data (outgrowth): 0.066 and 0.061
Aspergillus niger ISI 3
  MBC (%): 0.63%
[9]
  log changes of CFU: lower than 5 log units
Vaccinia; 1.0% NBDA
  Mean log reduction after 60 seconds: 0.17
Vaccinia; 5.0% NBDA
  Mean log reduction after 60 seconds: 0.09
